In patent US12528812B2 (Genentech, Inc., priority 2020, dated 2026):

What was measured:
[1] = system: IL-13-stimulated STAT6 phosphorylation in human lung bronchial epithelial BEAS-2B cell line; test: P-STAT6 BEAS-2B + IL-13 cell assay; format: cell-based; conditions: Homo sapiens, BEAS-2B, BEAS2B cells, IL13 stimulation; read-out: Cellular JAK1 PSTAT6 BEAS2B + IL13
In short: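 Phospho-STAT6 (Tyr641) was quantified in lysates by MSD electrochemiluminescence after human IL-13 challenge (250 ng/mL stock, 15 min, 37 °C). Before that, BEAS-2B cells cultured 48 h had 1 h compound exposure over 10 concentrations. Percent of control was fitted to a four-parameter logistic model to give IC50.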

[2] = target: Recombinant human JAK2 kinase domain protein (Residues 812-1132) (Homo sapiens, UniProt O60674); test: JAK2 biochemical assay (LabChip mobility shift, Ki); conditions: Biochem JAK2 Ki
Chain of Recombinant human JAK2 kinase domain protein (Residues 812-1132) (O60674 812-1132): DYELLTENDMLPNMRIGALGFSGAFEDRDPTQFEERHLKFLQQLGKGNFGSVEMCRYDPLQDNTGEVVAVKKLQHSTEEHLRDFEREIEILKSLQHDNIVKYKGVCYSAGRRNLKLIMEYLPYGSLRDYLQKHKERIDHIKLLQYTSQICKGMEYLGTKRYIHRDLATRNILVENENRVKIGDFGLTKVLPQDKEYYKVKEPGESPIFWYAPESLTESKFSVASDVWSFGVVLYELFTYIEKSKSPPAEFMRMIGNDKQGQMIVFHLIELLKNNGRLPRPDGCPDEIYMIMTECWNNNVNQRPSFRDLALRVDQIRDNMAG
Protocol: The in vitro biochemical assays quantify JAK-catalyzed phosphorylation of a synthetic peptide, as detected using a LabChip® EZ Reader II microfluidic mobility shift instrument (PerkinElmer; Waltham, MA). […] Y-1B is fluorescently labeled on the N-terminus with 5-FAM (5-carboxyfluorescein) and contains a single tyrosine residue (Y) that can be phosphorylated by JAK activity. The substrate peptide stock is prepared in DMSO at 5 mM. […] In each titration experiment, test compound was tested in duplicate at each of the twelve concentrations. Blank reactions contained ATP, peptide, and DMSO, but no JAK or test compound, whereas uninhibited control reactions contained ATP, peptide, JAK, and DMSO, but no test compound.
Peptide plus ATP mixture (24 μL) was added to 1 μL of test compound in DMSO (or DMSO alone). The reactions were initiated by adding 25 μL of JAK enzyme to the inhibitor/peptide/ATP mixture before thoroughly mixing the resultant solution. Reactions were incubated at room temperature (22° C.-23° C.) in a final volume of 50 μL per well in 384-well plates. After a 30-minute incubation, the reactions were stopped by adding 25 μL of 150 mM ethylenediaminetetraacetic acid in 100 mM HEPES buffer (pH 7.2) containing 0.015% Brij 35 to each well.
In each reaction, the residual Y-1B substrate and the phospho-peptide product generated were separated using the EZ Reader II instrument. Electrophoretic separation of molecules of product from molecules of substrate was achieved using downstream and upstream voltages of −500 and −2600 V, respectively, at an operating pressure of −1.3 psi.
The extent (or percent) of conversion of substrate to product was calculated from the corresponding peak heights in the electropherogram using HTS Well Analyzer software, Version 5.2 (PerkinElmer), and the following equation (Equation 1): conversion=[P÷(S+P)]×100 Equation 1% where S and P represent the peak heights of the substrate and product, respectively. After any baseline signal from blank wells containing no JAK was subtracted from the signal of all test wells, the % conversion data were converted to fractional activity as shown in Equation 2, where vi and vo are the % conversion in the presence and absence of test compound, respectively.

[3] = target: T1, recombinant human JAK1 kinase domain protein (Residues 854-1154) (Homo sapiens, UniProt P23458); test: JAK1 biochemical assay (LabChip mobility shift, Ki); conditions: read-out: Biochem JAK1 Ki
T1 construct: human JAK1 kinase domain protein (Residues 854-1154); purchased Proteros Biostructures GmbH (Martinsried, Germany); host or cells: insect cells
T1 sequence (P23458 854-1154): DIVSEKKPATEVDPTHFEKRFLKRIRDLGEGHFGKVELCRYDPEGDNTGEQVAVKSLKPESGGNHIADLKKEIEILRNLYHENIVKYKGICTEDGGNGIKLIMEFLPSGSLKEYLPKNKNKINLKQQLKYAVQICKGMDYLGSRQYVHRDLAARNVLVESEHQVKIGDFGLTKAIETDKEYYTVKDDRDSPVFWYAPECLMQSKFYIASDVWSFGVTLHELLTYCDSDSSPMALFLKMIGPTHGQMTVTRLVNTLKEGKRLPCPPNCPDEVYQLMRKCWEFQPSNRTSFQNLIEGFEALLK

Row | Compound | IC50 [1] [nM] | Ki [2] [nM] | Ki [3] [nM]
1 | CN(Cc1cccc(Oc2ccc(OC(F)F)c(-c3nn(C)cc3NC(=O)c3cnn4cccnc34)c2)c1)CC(C)(C)C#N [Example 21, N-[3-[5-[3-[[(2-cyano-2-methyl-propyl)-methyl-amino]methyl]phenoxy]-2-(difluoromethoxy)phenyl]-1-methyl-pyrazol-4-yl]pyrazolo[1,5-a]pyrimidine-3-carboxamide] | 110 | 1.3 | 1.8
2 | CN(CCO)Cc1cccc(Oc2ccc(OC(F)F)c(-c3nn(C)cc3NC(=O)c3cnn4cccnc34)c2)c1 [Example 22] | 22 | 0.31 | 0.34
3 | Cn1cc(NC(=O)c2cnn3cccnc23)c(-c2cc(Oc3cccc(CNCCO)c3)ccc2OC(F)F)n1 [Example 23, N-[3-[2-(difluoromethoxy)-5-[3-[(2-hydroxyethylamino)methyl]phenoxy]phenyl]-1-methyl-pyrazol-4-yl]pyrazolo[1,5-a]pyrimidine-3-carboxamide] | 24 | 0.35 | 0.37
4 | NCc1cccc(Oc2ccc(OC(F)F)c(-c3n[nH]cc3NC(=O)c3cnn4cccnc34)c2)c1F [Example 24, N-[3-[5-[3-(aminomethyl)-2-fluoro-phenoxy]-2-(difluoromethoxy)phenyl]-1H-pyrazol-4-yl]pyrazolo[1,5-a]pyrimidine-3-carboxamide] | 22 | 0.56 | 0.64
5 | Cc1ccc(Oc2ccc(OC(F)F)c(-c3n[nH]cc3NC(=O)c3cnn4cccnc34)c2)cc1 [Example 25, N-[3-[2-(difluoromethoxy)-5-(4-methylphenoxy)phenyl]-1H-pyrazol-4-yl]pyrazolo[1,5-a]pyrimidine-3-carboxamide] | 11 | 0.14 | 0.39
6 | CNCCn1cc(NC(=O)c2cnn3cccnc23)c(-c2cc(Oc3ccccc3)ccc2OC(F)F)n1 [Example 26, N-[3-[2-(difluoromethoxy)-5-phenoxy-phenyl]-1-[2 (methylamino)ethyl]pyrazol-4-yl]pyrazolo[1,5-a]pyrimidine-3-carboxamide] | 12 | 0.41 | 0.25
7 | COCCNCc1cccc(Oc2ccc(OC(F)F)c(-c3nn(C)cc3NC(=O)c3cnn4cccnc34)c2)c1 [Example 27, N-[3-[2-(difluoromethoxy)-5-[3-[(2-methoxyethylamino)methyl]phenoxy]phenyl]-1-methyl-pyrazol-4-yl]pyrazolo[1,5-a]pyrimidine-3-carboxamide] | 20 | 0.55 | 0.73
8 | Cn1cc(NC(=O)c2cnn3cccnc23)c(-c2cc(Oc3cc(CN)ccc3F)ccc2OC(F)F)n1 [Example 28, N-[3-[5-[5-(aminomethyl)-2-fluoro-phenoxy]-2-(difluoromethoxy)phenyl]-1-methyl-pyrazol-4-yl]pyrazolo[1,5-a]pyrimidine-3-carboxamide] | 19 | 0.21 | 0.19
9 | Cn1cc(NC(=O)c2cnn3cccnc23)c(-c2cc(Oc3cccc(CNC4COC4)c3)ccc2OC(F)F)n1 [Example 29, N-[3-[2-(difluoromethoxy)-5-[3-[(oxetan-3-ylamino)methyl]phenoxy]phenyl]-1-methyl-pyrazol-4-yl]pyrazolo[1,5-a]pyrimidine-3-carboxamide] | 62 | 0.72 | 1.2
10 | CN1CCOC(c2cccc(Oc3ccc(OC(F)F)c(-c4nn(C)cc4NC(=O)c4cnn5cccnc45)c3)c2)C1 (stereo not drawn) [Example 30, N-[3-[2-(difluoromethoxy)-5-[3-(4-methylmorpholin-2-yl)phenoxy]phenyl]-1-methyl-pyrazol-4-yl]pyrazolo[1,5-a]pyrimidine-3-carboxamide] | 40 | 0.56 | 0.93
11 | CN1CCc2ccc(Oc3ccc(OC(F)F)c(-c4n[nH]cc4NC(=O)c4cnn5cccnc45)c3)cc2C1 [Example 36, N-[3-[2-(difluoromethoxy)-5-[(2-methyl-3,4-dihydro-1H-isoquinolin-7-yl)oxy]phenyl]-1H-pyrazol-4-yl]pyrazolo[1,5-a]pyrimidine-3-carboxamide] | 11 | 0.25 | 0.51
